Results from paper PMC7784773 (Protein Science : A Publication of the Protein Society, 2020).
“And” between values parts separate entries of the source, which are not always exact repeats. Identical values can stand only once.

Assays:
[1] = molecular target: T1, R67 dihydrofolate reductase (R67 DHFR; 4F, 5F, 6F and 7F R67 DHFR) (Escherichia coli, UniProt P00383); experiment: […] NMR titration, peak intensity, […] fit; type: binding; settings: Kd (μM) ^a / NADP^+
T1 sequence (P00383 1-78): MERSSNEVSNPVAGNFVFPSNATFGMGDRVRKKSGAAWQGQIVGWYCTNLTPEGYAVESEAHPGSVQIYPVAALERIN

[2] = molecular target: T1, R67 dihydrofolate reductase (R67 DHFR; 4F, 5F, 6F and 7F R67 DHFR); experiment: […] NMR titration, chemical shift, […] fit; type: binding

## NC(=O)c1ccc[n+]([C@@H]2O[C@H](COP(=O)(O)OP(=O)(O)OC[C@H]3O[C@@H](n4cnc5c(N)ncnc54)[C@H](OP(=O)(O)O)[C@@H]3O)[C@@H](O)[C@H]2O)c1 [NADP^+]
[1]
  Kd: 360 µM and 320 µM and 380 µM
[2]
  Kd: 220 ± 20 µM
